For this assay, the target named is T1, recombinant human ALX receptor (Homo sapiens, UniProt P25090).
T1 construct: expressed in transfected cells; host or cells: HEK293 (HEK293-hALXR-Gα16)
T1 sequence (P25090 1-351): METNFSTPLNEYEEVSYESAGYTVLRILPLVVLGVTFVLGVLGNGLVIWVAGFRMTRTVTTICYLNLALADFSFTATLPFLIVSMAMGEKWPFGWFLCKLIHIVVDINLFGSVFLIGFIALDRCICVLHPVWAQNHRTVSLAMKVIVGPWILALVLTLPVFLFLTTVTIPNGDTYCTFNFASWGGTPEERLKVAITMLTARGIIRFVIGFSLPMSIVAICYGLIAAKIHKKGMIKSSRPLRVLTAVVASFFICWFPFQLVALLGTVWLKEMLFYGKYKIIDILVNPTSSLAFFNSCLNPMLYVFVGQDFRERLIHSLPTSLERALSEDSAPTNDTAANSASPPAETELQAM
The experiment in a line: Intracellular calcium measurements (FLIPR), ALX receptor agonistic activity. It is filed as cell-based. To be noted: HEK293-hALXR-Gα16 cells, Fluo-4 calcium fluorescence, normalized to 10 nM WKYMVm. Here is the method: The ALX receptor agonistic activity of the compounds of formula (I) is determined in accordance with the following experimental method.
Intracellular Calcium Measurements:
Cells expressing recombinant human ALX receptor and the G-protein Gα16 (HEK293-hALXR-Gα16) were grown to 80% confluency in Growing Medium (GM). […] Stock solutions of test compounds were made up at a concentration of 10 mM in DMSO, and serially diluted in AB to concentrations required for activation dose response curves. WKYMVm (Phoenix Peptides) was used as a reference agonist. A FLIPR384 instrument (Molecular Devices) was operated according to the manufacturer's standard instructions, adding 4 μl of test compound dissolved at 10 mM in DMSO and diluted prior to the experiment in assay buffer to obtain the desired final concentration. Changes in fluorescence were monitored before and after the addition of test compounds at lex=488 nm and lem=540 nm. Emission peak values above base level after compounds addition were exported after base line subtraction. Values were normalized to high-level control (WKYMVm compound, 10 nM final concentration) after subtraction of the base line value (AB addition). The program XLlfit 3.0 (IDBS) was used to fit the data to a single site dose response curve of the equation (A+((B−A)/(1+((C/x)^D)))) and to calculate the EC50 values.
(Calcium flux is commonly read through the fluorescence of an indicator in the cells.)
By EC50 is commonly meant the concentration giving half of the maximal effect. Take `CC(=O)CCCCn1cc(NC(=O)OC(C)c2ccccc2)cn1` (racemic) [Example 125, [1-(5-Oxo-hexyl)-1H-pyrazol-4-yl]-carbamic acid (RS)-1-phenyl-ethyl ester]: the half-maximal effective concentration (EC50) stood at 69 nM. To `O=C(Nc1cnn(Cc2ccc(C(=O)C3CC3)o2)c1)OCc1ccccc1Cl` [Example 3, [1-(5-Cyclopropanecarbonyl-furan-2-ylmethyl)-1H-pyrazol-4-yl]-carbamic acid 2-chloro-benzyl ester] belongs 205 nM. The same measure for `CC(=O)c1ccc(Cn2ccc(NC(=O)OCc3cc(F)c(F)cc3F)n2)o1` [Example 24, [1-(5-Acetyl-furan-2-ylmethyl)-1H-pyrazol-3-yl]-carbamic acid 2,4,5-trifluoro-benzyl ester]: 33 nM; for `CC(=O)c1ccc(Cn2ccc(NC(=O)/C=C/c3cccc(C(F)(F)F)c3F)n2)o1` [Example 45, (E)-N-[1-(5-Acetyl-furan-2-ylmethyl)-1H-pyrazol-3-yl]-3-(2-fluoro-3-trifluoromethyl-phenyl)-acrylamide]: 95 nM; for `COc1ccc(-c2ocnc2C(=O)Nc2ccn(Cc3ccc(C(C)=O)o3)n2)cc1` [Example 48, 5-(4-Methoxy-phenyl)-oxazole-4-carboxylic acid [1-(5-acetyl-furan-2-ylmethyl)-1H-pyrazol-3-yl]-amide]: 198 nM.

Regarding `CC(=O)c1ccc(Cn2cc(NC(=O)OCc3ccc(C(F)(F)F)cc3)cn2)o1` [Example 63, [1-(5-Acetyl-furan-2-ylmethyl)-1H-pyrazol-4-yl]-carbamic acid 4-trifluoromethyl-benzyl ester], the EC50 is 53 nM. For `COc1cccc(/C=C/C(=O)Nc2cnn(Cc3ccc(C(C)=O)o3)c2)c1OC` [Example 93, (E)-N-[1-(5-Acetyl-furan-2-ylmethyl)-1H-pyrazol-4-yl]-3-(2,3-dimethoxy-phenyl)-acrylamide], the EC50 came out at 210 nM. The same measure for `CC(=O)c1ccc(Cn2cc(NC(=O)c3ncsc3-c3cccc(Cl)c3)cn2)o1` [Example 120, 5-(3-Chloro-phenyl)-thiazole-4-carboxylic acid [1-(5-acetyl-furan-2-ylmethyl)-1H-pyrazol-4-yl]-amide]: 202 nM.

For the compound `CC(=O)CCCCn1cc(NC(=O)c2ncoc2-c2ccccc2)cn1` [Example 152, 5-Phenyl-oxazole-4-carboxylic acid [1-(5-oxo-hexyl)-1H-pyrazol-4-yl]-amide], the EC50 was 191 nM. To `CC(=O)CCCCn1cc(NC(=O)/C=C/c2ccccc2Cl)cn1` [Example 157, (E)-3-(2-Chloro-phenyl)-N-[1-(5-oxo-hexyl)-1H-pyrazol-4-yl]-acrylamide] belongs 330 nM. The same measure for `CC(=O)CCCCn1ccc(NC(=O)OCc2ccc(F)c(F)c2)n1` [Example 169, [1-(5-Oxo-hexyl)-1H-pyrazol-3-yl]-carbamic acid 3,4-difluoro-benzyl ester]: 363 nM; for `CC(=O)CCCCn1ccc(NC(=O)c2ncoc2-c2ccccc2)n1` [Example 179, 5-Phenyl-oxazole-4-carboxylic acid [1-(5-oxo-hexyl)-1H-pyrazol-3-yl]-amide]: 955 nM; for `CC(=O)CCCCn1ccc(NC(=O)/C=C/c2ccccc2C(F)(F)F)n1` [Example 181, (E)-N-[1-(5-Oxo-hexyl)-1H-pyrazol-3-yl]-3-(2-trifluoromethyl-phenyl)-acrylamide]: 67 nM.

`CC(F)(F)c1ccc(Cn2ccc(NC(=O)OCc3ccccc3Cl)n2)o1` [Example 197, {1-[5-(1,1-Difluoro-ethyl)-furan-2-ylmethyl]-1H-pyrazol-3-yl}-carbamic acid 2-chloro-benzyl ester]: the EC50 stood at 29 nM. The same measure for `CC(F)(F)c1ccc(Cn2ccc(NC(=O)c3ncoc3-c3ccccc3)n2)o1` [Example 198, 5-Phenyl-oxazole-4-carboxylic acid {1-[5-(1,1-difluoro-ethyl)-furan-2-ylmethyl]-1H-pyrazol-3-yl}-amide]: 310 nM; for `CC(F)(F)c1ccc(Cn2cc(NC(=O)OCc3ccccc3Cl)cn2)o1` [Example 199, {1-[5-(1,1-Difluoro-ethyl)-furan-2-ylmethyl]-1H-pyrazol-4-yl}-carbamic acid 2-chloro-benzyl ester]: 33 nM; for `CC(F)(F)c1ccc(Cn2cc(NC(=O)c3ncoc3-c3ccccc3)cn2)o1` [Example 200, 5-Phenyl-oxazole-4-carboxylic acid {1-[5-(1,1-difluoro-ethyl)-furan-2-ylmethyl]-1H-pyrazol-4-yl}-amide]: 46 nM. For the compound `CC(F)(F)CCCCn1ccc(NC(=O)OCc2ccccc2Cl)n1` [Example 201, [1-(5,5-Difluoro-hexyl)-1H-pyrazol-3-yl]-carbamic acid 2-chloro-benzyl ester], the concentration for a half-maximal effect (EC50) was found to be 154 nM. On to `CC(F)(F)CCCCn1ccc(NC(=O)c2ncoc2-c2ccccc2)n1` [Example 202, 5-Phenyl-oxazole-4-carboxylic acid [1-(5,5-difluoro-hexyl)-1H-pyrazol-3-yl]-amide], for which the EC50 worked out at 899 nM. To `CC(F)(F)CCCCn1cc(NC(=O)OCc2ccccc2Cl)cn1` [Example 203, [1-(5,5-Difluoro-hexyl)-1H-pyrazol-4-yl]-carbamic acid 2-chloro-benzyl ester] belongs 28 nM; to `CC(F)(F)CCCCn1cc(NC(=O)c2ncoc2-c2ccccc2)cn1` [Example 204, 5-Phenyl-oxazole-4-carboxylic acid [1-(5,5-difluoro-hexyl)-1H-pyrazol-4-yl]-amide], 195 nM. Regarding `CC(F)CCCCn1cc(NC(=O)OCc2ccccc2Cl)cn1` (stereo not drawn) [Example 236, [1-(5-Fluoro-hexyl)-1H-pyrazol-4-yl]-carbamic acid 2-chloro-benzyl ester], the 50% effective concentration (EC50) amounted to 118 nM. The same measure for `CC(F)(F)c1ccc(Cn2ccc(NC(=O)OCc3cccc(C(F)(F)F)c3)n2)o1` [Example 280, {1-[5-(1,1-Difluoro-ethyl)-furan-2-ylmethyl]-1H-pyrazol-3-yl}-carbamic acid 3-trifluoromethyl-benzyl ester]: 27 nM; for `Cc1ccc(F)c(COC(=O)Nc2ccn(CCCCC(C)(F)F)n2)c1F` [Example 282, [1-(5,5-Difluoro-hexyl)-1H-pyrazol-3-yl]-carbamic acid 2,6-difluoro-3-methyl-benzyl ester]: 25 nM. To `CCc1ccccc1COC(=O)Nc1cnn(Cc2ccc(C(C)(F)F)o2)c1` [Example 314, {1-[5-(1,1-Difluoro-ethyl)-furan-2-ylmethyl]-1H-pyrazol-4-yl}-carbamic acid 2-ethyl-benzyl ester] belongs 27 nM. The same measure for `CC(=O)c1ccc(Cn2cc(NC(=O)c3ncoc3-c3ccc(C)cc3)cn2)o1` [Example 331, 5-p-Tolyl-oxazole-4-carboxylic acid [1-(5-acetyl-furan-2-ylmethyl)-1H-pyrazol-4-yl]-amide]: 85 nM; for `CC(=O)c1ccc(Cn2ccc(NC(=O)c3nc(C)oc3-c3cccc(-c4ccccc4)c3)n2)o1` [Example 354, 5-Biphenyl-3-yl-2-methyl-oxazole-4-carboxylic acid [1-(5-acetyl-furan-2-ylmethyl)-1H-pyrazol-3-yl]-amide]: 60 nM; for `CC(=O)c1ccc(Cn2ccc(NC(=O)c3ncoc3-c3cccc(-c4ccccc4)c3)n2)o1` [Example 356, 5-Biphenyl-3-yl-oxazole-4-carboxylic acid [1-(5-acetyl-furan-2-ylmethyl)-1H-pyrazol-3-yl]-amide]: 29 nM. For `CC(=O)c1cc(Cn2cc(NC(=O)c3ncoc3-c3ccccc3)cn2)on1` [Example 362, 5-Phenyl-oxazole-4-carboxylic acid [1-(3-acetyl-isoxazol-5-ylmethyl)-1H-pyrazol-4-yl]-amide], the EC50 was 1470 nM. The same measure for `CC(=O)c1cccc(Cn2cc(NC(=O)c3ncoc3-c3ccccc3)cn2)n1` [Example 364, 5-Phenyl-oxazole-4-carboxylic acid [1-(6-acetyl-pyridin-2-ylmethyl)-1H-pyrazol-4-yl]-amide]: 809 nM. Consider `CC(=O)c1cccc(Cn2cc(NC(=O)OCc3ccccc3Cl)cn2)c1` [Example 366, [1-(3-Acetyl-benzyl)-1H-pyrazol-4-yl]-carbamic acid 2-chloro-benzyl ester], for which the EC50 was found to be 56 nM. To `CC(=O)c1ccc(Cn2ccc(NC(=O)c3ncoc3-c3ccccc3)n2)s1` [Example 376, 5-Phenyl-oxazole-4-carboxylic acid [1-(5-acetyl-thiophen-2-ylmethyl)-1H-pyrazol-3-yl]-amide] belongs 74 nM; to `COCCc1cccc(-c2ocnc2C(=O)Nc2ccn(Cc3ccc(C(C)=O)o3)n2)c1` [Example 379, 5-[3-(2-Methoxy-ethyl)-phenyl]-oxazole-4-carboxylic acid [1-(5-acetyl-furan-2-ylmethyl)-1H-pyrazol-3-yl]-amide], 18 nM.
